In patent US9279813B2, “Ex vivo flow cytometry method and device” (Purdue Research Foundation, priority 2006, dated 2016):

Target: T1, cell surface folate receptors on folate receptor positive M109 cells (Mus musculus, UniProt P35846)
T1 construct: cell surface folate receptors on folate receptor positive M109 cells in culture; endogenous in cells; host or cells: M109 cells
Experiment: Fluorescence measurement of binding to cell surface folate receptors on M109 cells in culture
Type: cell-based
Method: TEXAS RED C2-maleimide (Molecular Probes, Eugene, Oreg.) was dissolved in dimethyl sulfoxide (DMSO) (1 mg in 200 μl DMSO). A 1.4 molar equivalent (1 mg) of Folate-Cys was added to the solution and mixed for 4 hours at room temperature. Folate-Cys-TEXAS RED (Folate-TEXAS RED) was purified by reverse-phase HPLC on a C18 column at a flow rate of 1 ml/min. The mobile phase, consisting of 10 mM NH4HCO3 buffer, pH 7.0 (eluent A) and acetonitrile (eluent B), was maintained at a 99:1 A:B ratio for the first five minutes and then changed to 70:30 A:B in a linear gradient over the next 30 minutes followed by a 1:99 A:B linear gradient over the last 15 minutes. Folate-Cys-TEXAS RED eluted as two isomer peaks at 44.5 and 45.8 minutes. The product was confirmed by mass spectroscopy and the biologic activity was confirmed by fluorescence measurement of its binding to cell surface folate receptors on folate receptor positive M109 cells in culture.
ALEXAFLUOR 488 C5-maleimide (Molecular Probes, Eugene, Oreg.) was dissolved in dimethyl sulfoxide (DMSO) (0.5 mg in 50 μl DMSO). A 1.5 molar equivalent (0.57 mg) of Folate-Cys was added to the solution and mixed for 4 hours at room temperature. […] The product was confirmed by mass spectroscopy and the biologic activity was confirmed by fluorescence measurement of its binding to cell surface folate receptors on folate receptor positive M109 cells in culture.

T1 sequence (P35846 25-232): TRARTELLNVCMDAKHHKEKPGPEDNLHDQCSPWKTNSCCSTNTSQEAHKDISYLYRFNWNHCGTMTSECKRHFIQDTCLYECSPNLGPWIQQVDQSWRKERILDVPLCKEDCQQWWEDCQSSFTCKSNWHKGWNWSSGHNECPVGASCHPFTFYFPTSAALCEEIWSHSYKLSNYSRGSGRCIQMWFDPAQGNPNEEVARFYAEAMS

biologic activity: binding to cell surface folate receptors | Structure (SMILES)
confirmed | N=c1ccc2c(-c3ccc(C(=O)NCCCCCN4C(=O)CC(SCC(NC(=O)CCC(NC(=O)c5ccc(NCc6cnc7nc(N)[nH]c(=O)c7n6)cc5)C(=O)O)C(=O)O)C4=O)cc3C(=O)O)c3ccc(N)c(S(=O)(=O)O)c3oc-2c1S(=O)(=O)O (centres unmarked) [Folate-Cys-ALEXAFLUOR 488]
confirmed | Nc1nc2ncc(CNc3ccc(C(=O)NC(CCC(=O)NC(CSC4CC(=O)N(CCNS(=O)(=O)c5ccc(C6=c7cc8c9c(c7Oc7c6cc6c%10c7CCCN%10CCC6)CCC[N+]=9CCC8)c(S(=O)(=O)O)c5)C4=O)C(=O)O)C(=O)O)cc3)nc2c(=O)[nH]1 (centres unmarked) [Folate-Cys-TEXAS RED]
